Measurements from patent publication US8796305B2 (Bayer Pharma Aktiengesellschaft, priority 2012, dated 2014).
Where a name gives a salt, the structure may show the parent alone.

Biological target: T1, recombinant guanylate cyclase reporter cell line (Rattus norvegicus, UniProt P19686+P20595)
T1 construct: expressed in transfected cells
T1 sequence (P20595 1-619): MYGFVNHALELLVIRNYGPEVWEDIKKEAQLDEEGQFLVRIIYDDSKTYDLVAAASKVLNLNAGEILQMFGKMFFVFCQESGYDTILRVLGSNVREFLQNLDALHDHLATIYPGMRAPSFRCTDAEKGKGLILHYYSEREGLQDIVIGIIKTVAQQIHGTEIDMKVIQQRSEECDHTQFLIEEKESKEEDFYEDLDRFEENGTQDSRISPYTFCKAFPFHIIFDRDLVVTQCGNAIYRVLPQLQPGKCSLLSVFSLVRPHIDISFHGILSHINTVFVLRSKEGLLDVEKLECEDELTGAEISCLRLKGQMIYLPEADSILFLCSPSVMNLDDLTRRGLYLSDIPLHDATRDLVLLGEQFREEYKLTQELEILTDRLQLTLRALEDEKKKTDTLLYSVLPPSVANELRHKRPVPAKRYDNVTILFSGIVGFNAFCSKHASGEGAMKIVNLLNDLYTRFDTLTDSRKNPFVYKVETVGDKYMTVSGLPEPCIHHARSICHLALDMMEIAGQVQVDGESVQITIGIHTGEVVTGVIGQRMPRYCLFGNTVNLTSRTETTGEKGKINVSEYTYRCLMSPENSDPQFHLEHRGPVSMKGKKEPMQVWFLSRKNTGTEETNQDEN
T1 sequence (P19686 1-690): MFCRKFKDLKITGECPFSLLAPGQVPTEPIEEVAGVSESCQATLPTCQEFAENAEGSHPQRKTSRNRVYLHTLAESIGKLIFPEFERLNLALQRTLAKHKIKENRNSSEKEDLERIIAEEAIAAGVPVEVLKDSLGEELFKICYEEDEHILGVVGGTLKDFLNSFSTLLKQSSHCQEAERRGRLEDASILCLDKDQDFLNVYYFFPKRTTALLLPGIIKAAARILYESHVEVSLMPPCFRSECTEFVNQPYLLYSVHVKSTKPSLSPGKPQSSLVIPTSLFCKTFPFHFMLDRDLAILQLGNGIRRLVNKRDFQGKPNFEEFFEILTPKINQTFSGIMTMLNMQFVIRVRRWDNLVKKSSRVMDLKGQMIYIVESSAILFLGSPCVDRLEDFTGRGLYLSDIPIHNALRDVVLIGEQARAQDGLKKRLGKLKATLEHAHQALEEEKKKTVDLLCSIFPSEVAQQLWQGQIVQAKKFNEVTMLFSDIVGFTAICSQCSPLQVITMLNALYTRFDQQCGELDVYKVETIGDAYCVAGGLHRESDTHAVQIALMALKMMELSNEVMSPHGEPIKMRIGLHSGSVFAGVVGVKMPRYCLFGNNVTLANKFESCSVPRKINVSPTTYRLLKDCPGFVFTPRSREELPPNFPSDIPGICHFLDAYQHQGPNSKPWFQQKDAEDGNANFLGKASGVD
Assay: Action on recombinant guanylate cyclase reporter cell line
Type: cell-based
Settings: representative MEC values
Procedure: B-2. Action on Recombinant Guanylate Cyclase Reporter Cell Line
The cellular action of the compounds according to the invention is determined on a recombinant guanylate cyclase reporter cell line, as described in F. Wunder et al., Anal. Biochem. 339, 104-112 (2005).
Representative MEC values (MEC=minimal effective concentration) for the compounds according to the invention are shown in the following table: […]

MEC (minimal effective concentration) | Structure (SMILES)
0.3 µM | COC(=O)C(NC(=O)c1c(C)nc2c(OCc3c(F)cccc3F)cccn12)c1ccc(F)cc1 (racemic) [Example 1, rac-Methyl [({8-[(2,6-difluorobenzyl)oxy]-2-methylimidazo[1,2-a]pyridin-3-yl}carbonyl)amino]-(4-fluorophenyl)acetate]
0.3 µM | COC(=O)C(NC(=O)c1c(C)nc2c(OCc3c(F)cccc3F)cccn12)c1ccc(Cl)cc1 (racemic) [Example 2, rac-Methyl (4-chlorophenyl)[({8-[(2,6-difluorobenzyl)oxy]-2-methylimidazo[1,2-a]pyridin-3-yl}carbonyl)amino]acetate]
3.0 µM | COC(=O)C(CC(F)(F)F)NC(=O)c1c(C)nc2c(OCc3c(F)cccc3F)cccn12 (racemic) [Example 9, rac-Methyl 2-[({8-[(2,6-difluorobenzyl)oxy]-2-methylimidazo[1,2-a]pyridin-3-yl}carbonyl)amino]-4,4,4-trifluorobutanoate]
1.0 µM | COC(=O)C(CCC(F)(F)F)NC(=O)c1c(C)nc2c(OCc3c(F)cccc3F)cccn12 (racemic) [Example 10, rac-Methyl N-({8-[(2,6-difluorobenzyl)oxy]-2-methylimidazo[1,2-a]pyridin-3-yl}carbonyl)-5,5,5-trifluoronorvalinate]
1.0 µM | COC(=O)CCNC(=O)c1c(C)nc2c(OCc3c(F)cccc3F)cccn12 [Example 7, Methyl N-({8-[(2,6-difluorobenzyl)oxy]-2-methylimidazo[1,2-a]pyridin-3-yl}carbonyl)-beta-alaninate]
0.3 µM | COC(=O)CCCCCCCNC(=O)c1c(C)nc2c(OCC3CCCCC3)cccn12 [Example 16]
0.065 µM | Cc1nc2c(OCC3CCCCC3)cccn2c1C(=O)NCCCCCCCC(=O)O [Example 20, 8-({[8-(Cyclohexylmethoxy)-2-methylimidazo[1,2-a]pyridin-3-yl]carbonyl}amino)octanoic acid]
0.3 µM | Cc1nc2c(OCC3CCCCC3)cccn2c1C(=O)NCCCCCC(=O)O [Example 22, 6-({[8-(Cyclohexylmethoxy)-2-methylimidazo[1,2-a]pyridin-3-yl]carbonyl}amino)hexanoic acid]
2.0 µM | CCCC[C@H](NC(=O)c1c(C)nc2c(OCc3c(F)cccc3F)cccn12)C(=O)O [Example 23, N-({8-[(2,6-Difluorobenzyl)oxy]-2-methylimidazo[1,2-a]pyridin-3-yl}carbonyl)norleucine hydrochloride]

More lines, now with the values behind:

Structure (SMILES) | MEC (minimal effective concentration)
COC(=O)CC(C)NC(=O)c1c(C)nc2c(OCc3c(F)cccc3F)cccn12 (racemic) [Example 4, rac-Methyl 3-[({8-[(2,6-difluorobenzyl)oxy]-2-methylimidazo[1,2-a]pyridin-3-yl}carbonyl)amino]butanoate] | 1.0 µM
CCCCC(NC(=O)c1c(C)nc2c(OCc3c(F)cccc3F)cccn12)C(=O)OC (racemic) [Example 8, rac-Methyl N-({8-[(2,6-difluorobenzyl)oxy]-2-methylimidazo[1,2-a]pyridin-3-yl}carbonyl)norleucinate] | 1.0 µM
COC(=O)C(CCCC(F)(F)F)NC(=O)c1c(C)nc2c(OCc3c(F)cccc3F)cccn12 (racemic) [Example 11, rac-Methyl N-({8-[(2,6-difluorobenzyl)oxy]-2-methylimidazo[1,2-a]pyridin-3-yl}carbonyl)-6,6,6-trifluoronorleucinate] | 0.3 µM
COC(=O)C(CCCC(F)(F)F)NC(=O)c1c(C)nc2c(OCc3c(F)cccc3F)cc(C)cn12 (racemic) [Example 12, rac-Methyl N-({8-[(2,6-difluorobenzyl)oxy]-2,6-dimethylimidazo[1,2-a]pyridin-3-yl}carbonyl)-6,6,6-trifluoronorleucinate] | 0.3 µM
COC(=O)C(CCCC(F)(F)F)NC(=O)c1c(C)nc2c(OCc3c(F)cccc3F)cc(Cl)cn12 (racemic) [Example 13, rac-Methyl N-({6-chloro-8-[(2,6-difluorobenzyl)oxy]-2-methylimidazo[1,2-a]pyridin-3-yl}carbonyl)-6,6,6-trifluoronorleucinate] | 0.3 µM
COC(=O)C(CCCC(F)(F)F)NC(=O)c1c(C)nc2c(OCc3c(F)ccc(F)c3F)cc(C)cn12 (racemic) [Example 14, rac-Methyl N-({2,6-dimethyl-8-[(2,3,6-trifluorobenzyl)oxy]imidazo[1,2-a]pyridin-3-yl}carbonyl)-6,6,6-trifluoronorleucinate] | 0.3 µM
COC(=O)CC(NC(=O)c1c(C)nc2c(OCc3c(F)cccc3F)cccn12)C(F)(F)F (racemic) [Example 17, rac-Methyl 3-[({8-[(2,6-difluorobenzyl)oxy]-2-methylimidazo[1,2-a]pyridin-3-yl}carbonyl)-amino]-4,4,4-trifluorobutanoate] | 1.0 µM
CCCCC(NC(=O)c1c(C)nc2c(OCc3c(F)cccc3F)cccn12)C(=O)OC (single isomer, unassigned; enantiomer a) [Example 18, ent-Methyl N-({8-[(2,6-difluorobenzyl)oxy]-2-methylimidazo[1,2-a]pyridin-3-yl}carbonyl)-norleucinate (Enantiomer A)] | 0.3 µM
CCCCC(NC(=O)c1c(C)nc2c(OCc3c(F)cccc3F)cccn12)C(=O)OC (single isomer, unassigned; enantiomer b) [Example 19, ent-Methyl N-({8-[(2,6-difluorobenzyl)oxy]-2-methylimidazo[1,2-a]pyridin-3-yl}carbonyl)-norleucinate (Enantiomer B)] | 1.0 µM
Cc1nc2c(OCc3c(F)cccc3F)cccn2c1C(=O)N[C@@H]1CCOC1=O [Example 3, 8-[(2,6-Difluorobenzyl)oxy]-2-methyl-N-[(3R)-2-oxotetrahydrofuran-3-yl]imidazo[1,2-a]pyridine-3-carboxamide] | 0.3 µM
COC(=O)C(C)(C)NC(=O)c1c(C)nc2c(OCc3c(F)cccc3F)cccn12 [Example 5, Methyl N-({8-[(2,6-difluorobenzyl)oxy]-2-methylimidazo[1,2-a]pyridin-3-yl}carbonyl)-2-methylalaninate] | 0.3 µM
COC(=O)[C@@H](C)NC(=O)c1c(C)nc2c(OCc3c(F)cccc3F)cccn12 [Example 6, Methyl N-({8-[(2,6-difluorobenzyl)oxy]-2-methylimidazo[1,2-a]pyridin-3-yl}carbonyl)-D-alaninate] | 3.0 µM
COC(=O)CCCCCCCNC(=O)c1c(C)nc2c(OCc3c(F)cccc3F)cccn12 [Example 15, Methyl 8-[({8-[(2,6-difluorobenzyl)oxy]-2-methylimidazo[1,2-a]pyridin-3-yl}carbonyl)amino]octanoate] | 1.0 µM
Cc1nc2c(OCc3c(F)cccc3F)cccn2c1C(=O)NCCCCCCCC(=O)O [Example 21, 8-[({8-[(2,6-Difluorobenzyl)oxy]-2-methylimidazo[1,2-a]pyridin-3-yl}carbonyl)amino]octanoic acid] | 0.1 µM
COC(=O)[C@H]1CC[C@H](CNC(=O)c2c(C)nc3c(OCc4c(F)cccc4F)cc(C)cn23)CC1 [Example 24, Methyl trans-4-{[({8-[(2,6-difluorobenzyl)oxy]-2,6-dimethylimidazo[1,2-a]pyridin-3-yl}carbonyl)-amino]methyl}cyclohexanecarboxylate] | 0.1 µM
Cc1cc(OCc2c(F)cccc2F)c2nc(C)c(C(=O)NC[C@H]3CC[C@H](C(=O)O)CC3)n2c1 [Example 25, trans-4-{[({8-[(2,6-Difluorobenzyl)oxy]-2,6-dimethylimidazo[1,2-a]pyridin-3-yl}carbonyl)amino]methyl}cyclohexanecarboxylic acid] | 1.0 µM
